{"source": "patent US7271187B2", "about": "“Compositions and methods for promoting tissue regeneration” (priority 2000, dated 2007)", "tested_on": "Fischer F344 female rats, spinal cord contusion injury", "assay": "Spinal cord contusion injury, injection of bone marrow cells from treated donors into the cavity", "format": "in vivo, rat", "conditions": "recipients of bone marrow cells from donors given 100 mg/kg orally", "excerpt": "In some embodiments of the invention, cells, preferably bone marrow cells, can be transferred from a first animal treated according to methods of the invention to a site of chronic spinal cord injury in the first animal or in a second animal.\nFischer F344 female rats (Taconic, Germantown N.Y.) weighing 175-200 g were subjected to 25 mm weight drop contusion injury as previously described (Gruner J A, J. Neurotrauma, 1992 Summer; 9(2):123-8) with slight modifications. Briefly, under isoflurane anethesia, a laminectomy exposing the T8-9 spinal cord segment was performed and a rod weighing 10 g was dropped on the exposed cord from 25 mm height. The rod diameter at its end (where cord-rod interaction takes place) is 2.8 mm. A total of 12 rats were injured. Four animals were used as donor animals, eight as recipients. Two donor animals were administered N-[4-[(4-fluorophenyl)sulfonyl]phenyl]acetamide at a dose of 100 mg/kg orally, and two other animals were treated with vehicle (cyclodextrin, 45% in distilled sterile water). […]\nDoseage levels of with N-[4-[(4-fluorophenyl)sulfonyl]phenyl]acetamide was 100 mg/kg at 20 mg/ml. No difference in cavity size was detected comparing saline treated animals and animals treated with bone marrow cells from vehicle treated donors. […]", "note": "Entries after “also recorded” stand apart in the source; their conditions may differ."}
{"compound": "CC(=O)Nc1ccc(S(=O)(=O)c2ccc(F)cc2)cc1", "note": "[N-[4-[(4-fluorophenyl)sulfonyl]phenyl]acetamide]", "values": [{"measurement": "cavity size at the injury site", "setting": "four weeks after cell injection, vs saline treated animals", "result": "decrease in cavity size at the injury site (approximately half the size)"}, {"measurement": "Nestin immunoreactive cells at the edge of the injury cavity", "setting": "vs saline or vehicle treated donors, 100 mg/kg", "result": "Nestin immunoreactive cells are observed at the edge of the injury cavity; also recorded: significant increase in cells immunoreactive to nestin"}]}
